Laboratory results published in US6913877B1 (priority 2000, dated 2005).
Entries after “also recorded” stand apart in the source; their conditions may differ. Structures can show the parent of a compound that is named as a salt. No end group written: not given here.

How the values were obtained:
chromatophores [1] = test system: chromatophores
[2] = test system: chromatophore/neuronal cell; type: cell-based
[3] = test system: chromatophore/fungal cell; type: cell-based
[4] = test system: Betta splendens erythrophores; type: cell-based
chromatophores [5] = type: cell-based
chromatophores [6] = test: cells; conditions: read-out: Threshold concentration PPM
[7] = test system: chromatophore/protozoal cell; type: cell-based
erythrophores = type: cell-based
melanophores = type: cell-based
[8] = test system: chromatophore/bacterial cell; type: cell-based
Betta chromatophores = type: cell-based
[9] = test system: Hemichromis bimaculatus chromatophores; type: cell-based
[10] = test system: Betta splendens chromatophores; type: cell-based
iridophores = type: cell-based

## c1ccc2cc3c(ccc4ccccc43)cc2c1 [1,2-Benzanthracene]
Chromatophores [1]
  Chromatophore response (cell spans the chromatophore columns, cell type not assigned): Imp.

## Nc1ncnc2c1ncn2[C@@H]1O[C@H](COP(=O)(O)OP(=O)(O)OP(=O)(O)O)[C@@H](O)[C@H]1O [ATP]
[2]
  Chromatophore response 2-Cell Cytosensor (second cell type included): Erythr. Aggr.

## c1cc2c3c(cccc3c1)CC2 [Acenapthene]
Chromatophores [1]
  Chromatophore response (cell spans the chromatophore columns, cell type not assigned): Imp.

## [Ag] [Ag]
Chromatophores [1]
  Chromatophore response (cell spans the chromatophore columns, cell type not assigned): Imp. (FS)

## N [Ammonium]
Chromatophores [1]
  Chromatophore response (cell spans the chromatophore columns, cell type not assigned): Imp. (FS)

## C[C@@H]1[C@H](O)[C@@H](C)/C=C/C=C/C=C/C=C/C=C/C=C/C=C/[C@H](O[C@@H]2O[C@H](C)[C@@H](O)[C@H](N)[C@@H]2O)C[C@@H]2O[C@](O)(C[C@@H](O)C[C@@H](O)[C@H](O)CC[C@@H](O)C[C@@H](O)CC(=O)O[C@H]1C)C[C@H](O)[C@H]2C(=O)O [Amphotericin B]
[3]
  Chromatophore response 2-Cell Cytosensor (second cell type included): Normal

## CC(=O)OCOC(=O)CN(CC(=O)OCOC(C)=O)c1ccccc1OCCOc1ccccc1N(CC(=O)OCOC(C)=O)CC(=O)OCOC(C)=O [BAPTA/AM]
[4]
  erythrophore pigment response: pigment dispersion

## COC(=O)C1=C(C)NC(C)=C([N+](=O)[O-])C1c1ccccc1C(F)(F)F (stereo not drawn) [Bay K8644]
[4]
  erythrophore pigment response to direct application: neither the aggregation nor dispersion of erythrophore pigment

## C=C(C=O)C[C@@H]1C[C@H](O)[C@]2(C)O[C@@H]3C[C@@H]4O[C@@H]5C[C@]6(C)O[C@]7(C)CC[C@@H]8O[C@@H]9C[C@]%10(C)O[C@@H]%11C(C)=CC(=O)O[C@H]%11C[C@H]%10O[C@H]9C[C@@H](C)[C@H]8O[C@H]7C[C@H]6O[C@H]5C/C=C\[C@H]4O[C@H]3C[C@H]2O1 [Brevetoxin]
Chromatophores [1]
  Chromatophore response (cell spans the chromatophore columns, cell type not assigned): Aggr.

## Cn1c(=O)c2c(ncn2C)n(C)c1=O [Caffeine]
Chromatophores [5]
  concentration at which chromatophores respond: 100 µM

## CCCCCCC(C)(C)c1ccc([C@@H]2C[C@H](O)CC[C@H]2CCCO)c(O)c1 [Cannabinoid CP-55940, CP-55940]
Chromatophores [6]
  minimal effective concentration: 100 to 1000 µg/mL
Chromatophores [1]
  Response time Hr.: X (key: X=1-6 hr; XX=6-24 hr)

## C[N+](C)(C)CCOC(N)=O [Carbachol]
[2]
  Chromatophore response 2-Cell Cytosensor (second cell type included): Erythr. Aggr.

## CCN(CC)CCCC(C)Nc1ccnc2cc(Cl)ccc12 (stereo not drawn) [Chloroquine]
[7]
  Chromatophore response 2-Cell Cytosensor (second cell type included): Normal

## Clc1cccc(Cl)c1N=C1NCCN1 [Clonidine]
erythrophores
  Chromatophore response Erythrophores: Aggr.

## [Cu] [Cu]
Chromatophores [1]
  Chromatophore response (cell spans the chromatophore columns, cell type not assigned): Imp. (FS)

## C=CC[C@@H](CC/C(C)=C/C=C/CC/C=C\[C@@H]1CSC([C@@H]2C[C@@H]2C)=N1)OC [Curacin A]
Chromatophores [1]
  Chromatophore response (cell spans the chromatophore columns, cell type not assigned): Aggr. and Imp. (FS)

## COP(=O)(OC)OC=C(Cl)Cl [Dichlorvos]
Chromatophores [1]
  Threshold concentration PPT: X (key: X=1 PPT or higher)

## C=C[C@@]1(C)CC(=O)[C@]2(O)[C@@]3(C)[C@@H](O)CCC(C)(C)[C@@H]3[C@H](O)[C@H](OC(C)=O)[C@@]2(C)O1 [Forskolin]
Chromatophores [5]
  concentration at which chromatophores respond: 10000 µM

## C[C@]12CCC(=O)C=C1CC[C@@H]1[C@@H]2[C@@H](O)C[C@@]2(C)[C@H]1CC[C@]2(O)C(=O)CO [Hydrocortisone]
Chromatophores [6]
  minimal effective concentration: 1 to 100 µg/mL
melanophores
  Chromatophore response Melanophores: Hyp.D.

## OO [Hydrogen peroxide]
Chromatophores [1]
  Chromatophore response (cell spans the chromatophore columns, cell type not assigned): Imp. (FS)

## C[C@H](CCC(=O)O)C[C@H](C)C[C@H](C)C(=O)/C=C(\O)[C@H](C)C[C@H](C)C/C=C/[C@@H](C)[C@@H](O)[C@@H](C)[C@@H](O)C[C@@H]1CC[C@@](C)([C@H]2CC[C@@](C)([C@@H](C)O)O2)O1 [Ionomycin]
[4]
  erythrophore pigment response: slight, but sustained aggregation

## Cc1ncc([N+](=O)[O-])n1CCO [Metronidazole]
[7]
  Chromatophore response 2-Cell Cytosensor (second cell type included): Normal

## CCn1cc(C(=O)O)c(=O)c2ccc(C)nc21 [Nalidixic acid]
[8]
  Chromatophore response 2-Cell Cytosensor (second cell type included): Normal

## c1ccc2c(CC3=NCCN3)cccc2c1 [Naphazoline]
erythrophores
  Chromatophore response Erythrophores: Aggr.

## [Ni] [Ni]
Chromatophores [1]
  Chromatophore response (cell spans the chromatophore columns, cell type not assigned): Imp. (FS)

## NC[C@H](O)c1ccc(O)c(O)c1 [Norepinephrine]
erythrophores
  Chromatophore response Erythrophores: Aggr.
Betta chromatophores
  chromatophore pigment response: aggregation of chromatophore pigment is apparent
Chromatophores [1]
  Threshold concentration PPB: X (key: X=1 to 100 PPB; XX=100 to 1000 PPB)
[9]
  change of appearance / color of chromatophores: change the appearance

## Cc1cc(C(C)(C)C)c(O)c(C)c1CC1=NCCN1 [Oxymetazoline]
erythrophores
  Chromatophore response Erythrophores: Aggr.

## O=S(=O)(F)Cc1ccccc1 [PMSF]
melanophores
  Chromatophore response Melanophores: Imp.

## CCOP(=O)(OCC)Oc1ccc([N+](=O)[O-])cc1 [Paraoxon]
Chromatophores [1]
  Threshold concentration PPM: XX (key: X=1 to 100 PPM; XX=100 to 1000 PPM)

## [Pb] [Pb]
Chromatophores [1]
  Chromatophore response (cell spans the chromatophore columns, cell type not assigned): Imp. (FS)

## CC(COc1ccccc1)N(CCCl)Cc1ccccc1 (stereo not drawn) [Phenoxybenzamine, Phenoxy-benzamine]
Chromatophores [1]
  Chromatophore response (cell spans the chromatophore columns, cell type not assigned): Blocks norepinephrine
  Threshold concentration PPB: X (key: X=1 to 100 PPB; XX=100 to 1000 PPB)

## Cc1ccc(N(CC2=NCCN2)c2cccc(O)c2)cc1 [Phentolamine]
Chromatophores [1]
  Chromatophore response (cell spans the chromatophore columns, cell type not assigned): Blocks norepinephrine
  Threshold concentration PPB: XX (key: X=1 to 100 PPB; XX=100 to 1000 PPB)

## C=C[C@H]1C[N@@]2CC[C@H]1C[C@H]2[C@H](O)c1ccnc2ccc(OC)cc12 [Quinine sulfate]
[7]
  Chromatophore response 2-Cell Cytosensor (second cell type included): Normal

## O=C(O)c1ccccc1O [Salicylate]
Chromatophores [1]
  Chromatophore response (cell spans the chromatophore columns, cell type not assigned): Imp. (FS)

## NCCc1c[nH]c2ccc(O)cc12 [Serotonin]
melanophores
  Chromatophore response Melanophores: Partial

## [H]/N=C(/N)N[C@H]1[C@H](O)[C@@H](O)[C@H](O[C@@H]2O[C@@H](C)[C@](O)(C=O)[C@H]2O[C@@H]2O[C@@H](CO)[C@H](O)[C@@H](O)[C@@H]2NC)[C@@H](N/C(N)=N\[H])[C@@H]1O [Streptomycin]
[8]
  Chromatophore response 2-Cell Cytosensor (second cell type included): Normal

## c1ccc2c(c1)CCCC2C1=NCCN1 (stereo not drawn) [Tetrahydrozoline]
erythrophores
  Chromatophore response Erythrophores: Aggr.

## CN(C)[C@@H]1C(O)=C(C(N)=O)C(=O)[C@@]2(O)C(O)=C3C(=O)c4c(O)cccc4[C@@](C)(O)[C@H]3C[C@@H]12 [Tetrasycline]
[8]
  Chromatophore response 2-Cell Cytosensor (second cell type included): Normal
Chromatophores [1]
  Response time Hr.: XX (key: X=1-6 hr; XX=6-24 hr)
  Threshold concentration PPM: X (key: X=1 to 100 PPM; XX=100 to 1000 PPM)

## COP(=O)(OC)C(O)C(Cl)(Cl)Cl (stereo not drawn) [Trichlorfon]
Chromatophores [1]
  Threshold concentration PPT: X (key: X=1 PPT or higher)

## COc1ccc(CCN(C)CCCC(C#N)(c2ccc(OC)c(OC)c2)C(C)C)cc1OC (stereo not drawn) [Verapamil]
[4]
  erythrophore pigment response: rapid dispersion; also recorded: disperse almost as completely as possible; also recorded: pigment dispersion; also recorded: larger dispersion

## COC(=O)[C@@H]1[C@H]2C[C@H]3c4[nH]c5ccccc5c4CCN3C[C@@H]2CC[C@@H]1O [Yohimbine]
Chromatophores [1]
  Chromatophore response (cell spans the chromatophore columns, cell type not assigned): Blocks norepinephrine
  Threshold concentration PPB: X (key: X=1 to 100 PPB; XX=100 to 1000 PPB)

## Cholera toxin
[10]
  lowest concentration at which inhibition of norepinephrine induced pigment aggregation is detected: 1 ng/m
Betta chromatophores
  chromatophore pigment response: Pigment aggregation is evident
  effect of pre-incubation on norepinephrine-induced pigment aggregation: impaired pigment aggregation in response to NE
Chromatophores [5]
  color class of chromatophores with selective sensitivity: erythrophores
Chromatophores [1]
  Threshold concentration PPB: X (key: X=1 to 100 PPB; XX=100 to 1000 PPB)
[9]
  change of appearance / color of chromatophores: change the appearance
  erythrophore response upon challenge by norepinephrine: impaired

## Latrotoxin
erythrophores
  Chromatophore response Erythrophores: Aggr
[2]
  Chromatophore response 2-Cell Cytosensor (second cell type included): Aggr.

## MSH
Chromatophores [5]
  concentration at which chromatophores respond: 0.001 µM
Chromatophores [1]
  Threshold concentration PPB: X (key: X=1 to 100 PPB; XX=100 to 1000 PPB)
melanophores
  Chromatophore response Melanophores: Disp.
iridophores
  Chromatophore response Iridophores: Hue changes (isolated

## Mevinphos
erythrophores
  Chromatophore response Erythrophores: Imp. (FS)
Chromatophores [1]
  Threshold concentration PPT: X (key: X=1 PPT or higher)
melanophores
  Chromatophore response Melanophores: Imp.
iridophores
  Chromatophore response Iridophores: Hue change, then Imp.

## Penicillin
[8]
  Chromatophore response 2-Cell Cytosensor (second cell type included): Normal

## Substance P (RPKPQQFFGLM; ends and bridges not checked; UniProt P20366 58-68, looked up)
iridophores
  Chromatophore response Iridophores: Hue changes (FS)

## melanophore concentrating hormone [MCH]
Chromatophores [1]
  Chromatophore response (cell spans the chromatophore columns, cell type not assigned): Aggr.
  Threshold concentration PPB: X (key: X=1 to 100 PPB; XX=100 to 1000 PPB)
